Results published in ChEMBL document CHEMBL1909046, “DrugMatrix in vitro pharmacology data”.
*1 amine or outer side, *2 acyl side, *3 side chain or, on linkers, in order; H or OH if unused. Where a SMILES comes first, the peptide text is derived from it. Bridges are numbered along the chain shown (N, C = ends). Roman numbers before positions name the chains, in order. [ ]: non-standard residue; d: D form. Actinocin(1to9) = Cc1c2oc3c(C)ccc(C(=O)[*:2])c3nc-2c(C(=O)[*:1])c(N)c1=O; NMeV = CN[C@H](C(=O)O)C(C)C; Sar = CNCC(=O)O

How the values were obtained:
[1] = target: T1, 5-hydroxytryptamine receptor 2C (Homo sapiens, UniProt P28335); experiment: DRUGMATRIX: Serotonin (5-Hydroxytryptamine) 5-HT2C radioligand binding (ligand: [3H] Mesulergine); format: cell membranes, CHO-K1, Membrane; settings: cho-k1; Not Active = under 50% inhibition at 10 µM
T1 sequence (P28335 whole entry): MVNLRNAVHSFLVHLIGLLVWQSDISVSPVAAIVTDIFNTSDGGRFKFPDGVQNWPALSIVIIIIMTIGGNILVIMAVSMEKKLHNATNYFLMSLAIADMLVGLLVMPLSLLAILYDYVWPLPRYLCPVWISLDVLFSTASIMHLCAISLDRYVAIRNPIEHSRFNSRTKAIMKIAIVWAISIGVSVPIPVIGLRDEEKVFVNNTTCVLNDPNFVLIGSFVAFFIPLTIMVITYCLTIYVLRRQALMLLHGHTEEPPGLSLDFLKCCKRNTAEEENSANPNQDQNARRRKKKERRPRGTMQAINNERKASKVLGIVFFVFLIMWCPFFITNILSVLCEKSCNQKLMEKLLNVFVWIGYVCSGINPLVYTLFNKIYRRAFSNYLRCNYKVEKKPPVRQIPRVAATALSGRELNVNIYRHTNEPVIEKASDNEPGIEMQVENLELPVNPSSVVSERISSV

D(1A) dopamine receptor = D(1A) dopamine receptor (Homo sapiens, UniProt P21728); experiment: DRUGMATRIX: Dopamine D1 radioligand binding (ligand: [3H] SCH-23390); format: cell membranes, CHO, Membrane; settings: cho; Not Active = under 50% inhibition at 10 µM
[2] = target: T2, Neuropeptide Y receptor type 1 (Homo sapiens, UniProt P25929); format: cell membranes, Membrane; settings: sk-n-mc; also: in other assays of this panel Not Active means under 50% inhibition at 10 µM
T2 sequence (P25929 whole entry): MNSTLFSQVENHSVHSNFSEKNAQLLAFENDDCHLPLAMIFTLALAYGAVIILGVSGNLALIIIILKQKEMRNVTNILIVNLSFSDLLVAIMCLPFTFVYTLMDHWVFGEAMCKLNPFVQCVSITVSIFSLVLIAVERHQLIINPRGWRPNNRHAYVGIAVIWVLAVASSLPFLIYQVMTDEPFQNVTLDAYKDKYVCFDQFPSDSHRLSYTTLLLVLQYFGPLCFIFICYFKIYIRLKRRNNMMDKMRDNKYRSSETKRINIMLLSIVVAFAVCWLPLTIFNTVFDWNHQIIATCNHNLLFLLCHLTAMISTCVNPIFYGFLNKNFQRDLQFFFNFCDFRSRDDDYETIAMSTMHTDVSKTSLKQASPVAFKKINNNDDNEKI

Mu-type opioid receptor = Mu-type opioid receptor (Homo sapiens, UniProt P35372); experiment: DRUGMATRIX: Opiate mu (OP3, MOP) radioligand binding (ligand: [3H] Diprenorphine); format: cell membranes, CHO-K1, Membrane; settings: cho-k1; Not Active = under 50% inhibition at 10 µM
[3] = target: T3, 5-hydroxytryptamine receptor 1A (Rattus norvegicus, UniProt P19327); format: cell membranes, CHO-K1, Membrane; settings: cho-k1; also: in other assays of this panel Not Active means under 50% inhibition at 10 µM
T3 sequence (P19327 whole entry): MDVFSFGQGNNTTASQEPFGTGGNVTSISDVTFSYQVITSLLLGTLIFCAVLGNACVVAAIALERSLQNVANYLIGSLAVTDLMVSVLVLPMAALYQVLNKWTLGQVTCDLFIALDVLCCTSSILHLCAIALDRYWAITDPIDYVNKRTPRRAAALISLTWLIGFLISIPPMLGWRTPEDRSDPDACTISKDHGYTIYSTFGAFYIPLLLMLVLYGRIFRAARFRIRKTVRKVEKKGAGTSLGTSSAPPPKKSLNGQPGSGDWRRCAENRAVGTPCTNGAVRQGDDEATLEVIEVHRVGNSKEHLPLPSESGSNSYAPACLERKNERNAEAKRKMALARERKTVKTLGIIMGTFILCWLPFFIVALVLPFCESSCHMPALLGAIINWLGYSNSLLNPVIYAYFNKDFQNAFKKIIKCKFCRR

Cytochrome P450 2D6 = Cytochrome P450 2D6 (Homo sapiens, UniProt P10635); settings: bti-tn-5b1-4; also: in other assays of this panel Not Active means under 50% inhibition at 10 µM
Sequence of Cytochrome P450 2D6 (P10635 whole entry): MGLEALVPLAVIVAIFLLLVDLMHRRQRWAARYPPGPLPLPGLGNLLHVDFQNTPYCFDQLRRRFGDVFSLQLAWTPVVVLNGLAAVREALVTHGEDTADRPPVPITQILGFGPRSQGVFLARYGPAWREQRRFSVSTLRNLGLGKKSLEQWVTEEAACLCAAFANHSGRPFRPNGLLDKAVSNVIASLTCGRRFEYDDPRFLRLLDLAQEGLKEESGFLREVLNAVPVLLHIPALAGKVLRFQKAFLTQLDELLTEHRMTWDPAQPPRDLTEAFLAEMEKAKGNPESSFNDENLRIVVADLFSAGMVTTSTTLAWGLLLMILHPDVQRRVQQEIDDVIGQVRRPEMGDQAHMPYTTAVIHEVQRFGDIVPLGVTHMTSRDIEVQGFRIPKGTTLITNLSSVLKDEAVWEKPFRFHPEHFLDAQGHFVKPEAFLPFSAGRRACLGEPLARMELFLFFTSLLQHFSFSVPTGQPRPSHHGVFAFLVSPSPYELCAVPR

Sequence of D(1A) dopamine receptor (P21728 whole entry): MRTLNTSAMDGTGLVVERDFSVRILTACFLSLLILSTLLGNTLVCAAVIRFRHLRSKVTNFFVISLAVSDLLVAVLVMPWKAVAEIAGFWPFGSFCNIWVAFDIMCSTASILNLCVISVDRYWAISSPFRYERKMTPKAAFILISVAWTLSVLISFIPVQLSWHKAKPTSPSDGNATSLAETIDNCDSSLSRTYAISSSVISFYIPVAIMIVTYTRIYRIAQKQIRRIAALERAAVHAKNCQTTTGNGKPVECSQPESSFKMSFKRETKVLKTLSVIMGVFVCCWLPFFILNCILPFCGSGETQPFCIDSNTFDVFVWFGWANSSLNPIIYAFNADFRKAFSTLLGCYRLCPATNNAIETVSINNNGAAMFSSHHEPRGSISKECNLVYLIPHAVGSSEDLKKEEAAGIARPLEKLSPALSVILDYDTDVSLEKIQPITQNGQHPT
Sequence of Mu-type opioid receptor (P35372 whole entry): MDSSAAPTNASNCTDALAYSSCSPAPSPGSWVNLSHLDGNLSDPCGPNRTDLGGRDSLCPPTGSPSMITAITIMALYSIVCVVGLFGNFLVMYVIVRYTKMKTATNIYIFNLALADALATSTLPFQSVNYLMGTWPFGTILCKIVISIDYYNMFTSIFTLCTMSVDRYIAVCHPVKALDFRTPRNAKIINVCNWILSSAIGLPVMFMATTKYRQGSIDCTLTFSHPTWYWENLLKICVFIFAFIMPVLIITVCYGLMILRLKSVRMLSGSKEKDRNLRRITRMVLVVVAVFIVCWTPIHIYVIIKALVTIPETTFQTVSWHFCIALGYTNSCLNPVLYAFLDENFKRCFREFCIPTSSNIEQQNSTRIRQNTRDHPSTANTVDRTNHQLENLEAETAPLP

CNNCc1ccc(C(=O)NC(C)C)cc1 [PROCARBAZINE]
Not Active: IC50 [1] | IC50 (D(1A) dopamine receptor) | IC50 [2] | IC50 (Mu-type opioid receptor) | IC50 [3] | IC50 (Cytochrome P450 2D6) | Ki (Cytochrome P450 2D6)

Cc1onc(O)c1CC(N)C(=O)O (racemic) [(R,S)-AMPA]
Not Active: IC50 [1] | IC50 (D(1A) dopamine receptor) | IC50 [2] | IC50 (Mu-type opioid receptor) | IC50 [3] | IC50 (Cytochrome P450 2D6) | Ki (Cytochrome P450 2D6)

Cc1c(O)c(=O)ccn1C [DEFERIPRONE]
Not Active: IC50 [1] | IC50 (D(1A) dopamine receptor) | IC50 [2] | IC50 (Mu-type opioid receptor) | IC50 [3] | IC50 (Cytochrome P450 2D6) | Ki (Cytochrome P450 2D6)

Nc1ncn([C@@H]2O[C@H](CO)[C@@H](O)[C@H]2O)c(=O)n1 [AZACITIDINE]
Not Active: IC50 [1] | IC50 (D(1A) dopamine receptor) | IC50 [2] | IC50 (Mu-type opioid receptor) | IC50 [3] | IC50 (Cytochrome P450 2D6) | Ki (Cytochrome P450 2D6)

CCn1cc(C(=O)O)c(=O)c2cc(F)c(N3CCNCC3)cc21 [NORFLOXACIN]
Not Active: IC50 [1] | IC50 (D(1A) dopamine receptor) | IC50 [2] | IC50 (Mu-type opioid receptor) | IC50 [3] | IC50 (Cytochrome P450 2D6) | Ki (Cytochrome P450 2D6)

CCOC(=O)C1=C(COCCN)NC(C)=C(C(=O)OC)C1c1ccccc1Cl (stereo not drawn) [AMLODIPINE]
Not Active: IC50 [1] | IC50 (D(1A) dopamine receptor) | IC50 [2] | IC50 (Mu-type opioid receptor) | IC50 [3] | IC50 (Cytochrome P450 2D6) | Ki (Cytochrome P450 2D6)

CC1Cc2ccccc2N1NC(=O)c1ccc(Cl)c(S(N)(=O)=O)c1 (stereo not drawn) [INDAPAMIDE]
Not Active: IC50 [1] | IC50 (D(1A) dopamine receptor) | IC50 [2] | IC50 (Mu-type opioid receptor) | IC50 [3] | IC50 (Cytochrome P450 2D6) | Ki (Cytochrome P450 2D6)

Cc1c2oc3c(C)ccc(C(=O)N[C@@H]4C(=O)N[C@H](C(C)C)C(=O)N5CCC[C@H]5C(=O)N(C)CC(=O)N(C)[C@@H](C(C)C)C(=O)O[C@@H]4C)c3nc-2c(C(=O)N[C@@H]2C(=O)N[C@H](C(C)C)C(=O)N3CCC[C@H]3C(=O)N(C)CC(=O)N(C)[C@@H](C(C)C)C(=O)O[C@@H]2C)c(N)c1=O [DACTINOMYCIN] (I: T[dV]P[Sar][NMeV] / II: T[dV]P[Sar][NMeV]; ester I:1-I:C, II:1-II:C; linker I:N-II:N via Actinocin(1to9))
Not Active: IC50 [1] | IC50 (D(1A) dopamine receptor) | IC50 [2] | IC50 (Mu-type opioid receptor) | IC50 [3] | IC50 (Cytochrome P450 2D6) | Ki (Cytochrome P450 2D6)

NCCCCCC(=O)O [AMINOCAPROIC ACID]
Not Active: IC50 [1] | IC50 (D(1A) dopamine receptor) | IC50 [2] | IC50 (Mu-type opioid receptor) | IC50 [3] | IC50 (Cytochrome P450 2D6) | Ki (Cytochrome P450 2D6)

c1ccc(Nc2ccc(Nc3ccccc3)cc2)cc1
Not Active: IC50 [1] | IC50 (D(1A) dopamine receptor) | IC50 [2] | IC50 (Mu-type opioid receptor) | IC50 [3] | IC50 (Cytochrome P450 2D6) | Ki (Cytochrome P450 2D6)

NC(=O)N1c2ccccc2CCc2ccccc21
Not Active: IC50 [1] | IC50 (D(1A) dopamine receptor) | IC50 [2] | IC50 (Mu-type opioid receptor) | IC50 [3] | IC50 (Cytochrome P450 2D6) | Ki (Cytochrome P450 2D6)

Cc1onc(-c2ccccc2Cl)c1C(=O)N[C@@H]1C(=O)N2[C@@H]1SC(C)(C)[C@@H]2C(=O)O [CLOXACILLIN]
Not Active: IC50 [1] | IC50 (D(1A) dopamine receptor) | IC50 [2] | IC50 (Mu-type opioid receptor) | IC50 [3] | IC50 (Cytochrome P450 2D6) | Ki (Cytochrome P450 2D6)

CC(O)CO (stereo not drawn) [PROPYLENE GLYCOL]
Not Active: IC50 [1] | IC50 (D(1A) dopamine receptor) | IC50 [2] | IC50 (Mu-type opioid receptor) | IC50 [3] | IC50 (Cytochrome P450 2D6) | Ki (Cytochrome P450 2D6)

CC(C)C(Br)C(=O)NC(N)=O (stereo not drawn) [BROMISOVALUM]
Not Active: IC50 [1] | IC50 (D(1A) dopamine receptor) | IC50 [2] | IC50 (Mu-type opioid receptor) | IC50 [3] | IC50 (Cytochrome P450 2D6) | Ki (Cytochrome P450 2D6)

CCC(C)n1ncn(-c2ccc(N3CCN(c4ccc(OCC5COC(Cn6cncn6)(c6ccc(Cl)cc6Cl)O5)cc4)CC3)cc2)c1=O (stereo not drawn) [ITRACONAZOLE]
Not Active: IC50 [1] | IC50 (D(1A) dopamine receptor) | IC50 [2] | IC50 (Mu-type opioid receptor) | IC50 [3] | IC50 (Cytochrome P450 2D6) | Ki (Cytochrome P450 2D6)

C[C@](N)(Cc1ccc(O)c(O)c1)C(=O)O [METHYLDOPA]
Not Active: IC50 [1] | IC50 (D(1A) dopamine receptor) | IC50 [2] | IC50 (Mu-type opioid receptor) | IC50 [3] | IC50 (Cytochrome P450 2D6) | Ki (Cytochrome P450 2D6)

Cc1ccccc1N1C(=O)c2cc(S(N)(=O)=O)c(Cl)cc2NC1C (stereo not drawn) [METOLAZONE]
Not Active: IC50 [1] | IC50 (D(1A) dopamine receptor) | IC50 [2] | IC50 (Mu-type opioid receptor) | IC50 [3] | IC50 (Cytochrome P450 2D6) | Ki (Cytochrome P450 2D6)

Nc1nc2c(ncn2CCC(CO)CO)c(=O)[nH]1 [PENCICLOVIR]
Not Active: IC50 [1] | IC50 (D(1A) dopamine receptor) | IC50 [2] | IC50 (Mu-type opioid receptor) | IC50 [3] | IC50 (Cytochrome P450 2D6) | Ki (Cytochrome P450 2D6)

CCOc1ccc(NC(C)=O)cc1 [PHENACETIN]
Not Active: IC50 [1] | IC50 (D(1A) dopamine receptor) | IC50 [2] | IC50 (Mu-type opioid receptor) | IC50 [3] | IC50 (Cytochrome P450 2D6) | Ki (Cytochrome P450 2D6)

N=C(N)NCCN1CCCCCCC1 [GUANETHIDINE]
Not Active: IC50 [1] | IC50 (D(1A) dopamine receptor) | IC50 [2] | IC50 (Mu-type opioid receptor) | IC50 [3]

CC(C)(Oc1ccc(Cl)cc1)C(=O)O [CLOFIBRIC ACID]
Not Active: IC50 [1] | IC50 (D(1A) dopamine receptor) | IC50 [2] | IC50 (Mu-type opioid receptor) | IC50 [3]
